pIC50: −log10 of the molar value. Where two headings read alike, the source gives them in different places.
Target: T1, ATM (Homo sapiens, UniProt Q13315)
T1 construct: detecting phosphorylation of Chk2 in a human non-small cell lung cancer cell line NCI-H460 (ATCC company); host or cells: NCI-H460 human non-small cell lung cancer cells
Test: ATM inhibition test (phosphorylation of Chk2 generated by ionizing radiation, AlphaScreen SureFire)
Format: cell-based
Details: phosphorylated Chk2 in NCI-H460 cells, ionizing radiation 8Gy, 1 hour after test compound treatment
Method in brief: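 In NCI-H460 cells, radiation-triggered Chk2 phosphorylation (8Gy, 1 h) is detected by AlphaScreen SureFire following 1 h compound exposure.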

[1] = read-out: ATM inhibitory activity

T1 sequence (Q13315 whole entry): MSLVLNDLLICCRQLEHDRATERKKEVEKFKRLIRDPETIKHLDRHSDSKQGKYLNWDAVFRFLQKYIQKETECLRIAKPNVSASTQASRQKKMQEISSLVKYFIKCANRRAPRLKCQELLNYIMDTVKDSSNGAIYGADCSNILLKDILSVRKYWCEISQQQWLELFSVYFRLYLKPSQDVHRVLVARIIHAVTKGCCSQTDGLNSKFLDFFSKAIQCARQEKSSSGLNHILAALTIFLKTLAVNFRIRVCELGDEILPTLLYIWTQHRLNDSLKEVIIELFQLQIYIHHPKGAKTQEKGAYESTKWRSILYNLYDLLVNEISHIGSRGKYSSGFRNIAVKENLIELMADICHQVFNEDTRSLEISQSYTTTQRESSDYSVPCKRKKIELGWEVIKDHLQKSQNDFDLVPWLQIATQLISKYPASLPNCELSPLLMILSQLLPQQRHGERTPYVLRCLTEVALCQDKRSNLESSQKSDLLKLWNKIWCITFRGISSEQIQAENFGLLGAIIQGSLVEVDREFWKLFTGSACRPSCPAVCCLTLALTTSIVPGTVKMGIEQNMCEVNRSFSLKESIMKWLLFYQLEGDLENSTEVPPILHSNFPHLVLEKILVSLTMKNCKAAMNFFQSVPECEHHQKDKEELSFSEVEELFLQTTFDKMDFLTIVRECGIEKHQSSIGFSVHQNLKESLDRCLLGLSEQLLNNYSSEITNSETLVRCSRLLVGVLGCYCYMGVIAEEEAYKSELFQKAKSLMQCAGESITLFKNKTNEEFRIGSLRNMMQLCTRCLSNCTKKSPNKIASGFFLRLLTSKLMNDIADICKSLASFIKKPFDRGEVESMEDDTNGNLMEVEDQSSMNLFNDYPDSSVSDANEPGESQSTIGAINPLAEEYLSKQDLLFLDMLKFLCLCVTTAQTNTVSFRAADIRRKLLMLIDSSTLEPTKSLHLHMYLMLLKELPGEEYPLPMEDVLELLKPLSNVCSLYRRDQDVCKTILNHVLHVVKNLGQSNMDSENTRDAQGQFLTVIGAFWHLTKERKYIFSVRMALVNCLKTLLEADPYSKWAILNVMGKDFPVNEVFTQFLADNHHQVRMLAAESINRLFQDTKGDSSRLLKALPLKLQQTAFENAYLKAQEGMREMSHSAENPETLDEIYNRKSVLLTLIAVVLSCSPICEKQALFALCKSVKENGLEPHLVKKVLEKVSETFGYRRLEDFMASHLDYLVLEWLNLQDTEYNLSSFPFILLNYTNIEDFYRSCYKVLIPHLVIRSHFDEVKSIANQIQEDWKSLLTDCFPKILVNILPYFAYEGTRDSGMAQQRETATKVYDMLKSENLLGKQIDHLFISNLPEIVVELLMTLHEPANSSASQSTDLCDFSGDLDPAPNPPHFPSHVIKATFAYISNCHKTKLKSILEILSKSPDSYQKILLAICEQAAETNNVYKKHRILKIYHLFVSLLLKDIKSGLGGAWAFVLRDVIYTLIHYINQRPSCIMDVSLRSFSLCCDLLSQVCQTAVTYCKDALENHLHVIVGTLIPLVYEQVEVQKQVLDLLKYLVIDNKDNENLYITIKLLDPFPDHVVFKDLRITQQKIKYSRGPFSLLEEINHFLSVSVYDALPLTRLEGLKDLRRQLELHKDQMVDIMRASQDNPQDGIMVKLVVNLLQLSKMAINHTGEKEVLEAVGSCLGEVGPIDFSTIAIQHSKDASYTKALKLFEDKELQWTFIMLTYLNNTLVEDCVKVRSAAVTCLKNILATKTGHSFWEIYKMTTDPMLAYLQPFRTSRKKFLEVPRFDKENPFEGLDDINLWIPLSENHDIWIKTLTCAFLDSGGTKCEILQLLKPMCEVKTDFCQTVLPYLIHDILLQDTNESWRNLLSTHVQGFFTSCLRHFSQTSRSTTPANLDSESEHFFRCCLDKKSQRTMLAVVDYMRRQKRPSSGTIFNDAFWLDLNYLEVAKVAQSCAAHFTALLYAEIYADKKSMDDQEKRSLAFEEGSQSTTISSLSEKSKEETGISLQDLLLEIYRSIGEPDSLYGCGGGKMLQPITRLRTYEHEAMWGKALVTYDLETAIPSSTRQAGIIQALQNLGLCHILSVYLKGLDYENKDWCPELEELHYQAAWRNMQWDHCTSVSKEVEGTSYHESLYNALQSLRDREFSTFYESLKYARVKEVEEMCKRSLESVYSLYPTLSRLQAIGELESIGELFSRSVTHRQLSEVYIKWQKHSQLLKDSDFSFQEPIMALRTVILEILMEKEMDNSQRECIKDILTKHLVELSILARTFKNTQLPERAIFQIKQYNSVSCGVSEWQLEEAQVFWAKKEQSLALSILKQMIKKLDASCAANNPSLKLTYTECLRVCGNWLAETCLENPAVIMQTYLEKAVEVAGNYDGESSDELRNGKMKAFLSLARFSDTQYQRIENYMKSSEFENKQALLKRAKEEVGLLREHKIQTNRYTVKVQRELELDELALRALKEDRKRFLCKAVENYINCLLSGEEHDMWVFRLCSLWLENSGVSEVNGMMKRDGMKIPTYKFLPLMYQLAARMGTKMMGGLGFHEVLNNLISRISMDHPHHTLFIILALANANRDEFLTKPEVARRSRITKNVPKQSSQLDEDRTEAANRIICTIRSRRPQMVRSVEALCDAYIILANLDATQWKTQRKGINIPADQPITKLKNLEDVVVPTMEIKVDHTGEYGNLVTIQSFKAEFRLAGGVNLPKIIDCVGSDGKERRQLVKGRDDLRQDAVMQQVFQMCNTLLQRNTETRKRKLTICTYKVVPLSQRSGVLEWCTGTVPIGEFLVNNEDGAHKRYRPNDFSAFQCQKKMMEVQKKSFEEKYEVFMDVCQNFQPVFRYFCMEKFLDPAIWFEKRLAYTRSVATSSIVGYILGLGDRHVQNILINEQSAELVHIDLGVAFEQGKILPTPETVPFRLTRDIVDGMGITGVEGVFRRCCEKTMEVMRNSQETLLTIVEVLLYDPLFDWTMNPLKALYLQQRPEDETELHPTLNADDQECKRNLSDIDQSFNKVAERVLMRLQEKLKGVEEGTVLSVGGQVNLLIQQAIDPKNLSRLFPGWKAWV

Row | pIC50 [1] | SMILES | pIC50 (ATM inhibitory activity)
1 | 6.30 to 7.00 | CC(Nc1ccc2c(c1)Sc1cccc(-c3cc(N4CCOCC4)cc(=O)[nH]3)c1S2)c1ncc(CN2CCCC2)cn1 (stereo not shown) [Example 1-12-94, 4-Morpholino-6-(7-((1-(5-(pyrrolidin-1-ylmethyl)pyrimidin-2-yl)ethyl)amino)thianthren-1-yl)pyridin-2 (1H)-one] | –
2 | 6.30 to 7.00 | Cc1ccc(C(Nc2ccc3c(c2)Sc2cccc(-c4cc(N5CCOCC5)cc(=O)[nH]4)c2S3)C2CCC2)nc1 (stereo not shown) [Example 1-12-124, 6-(7-((Cyclobutyl(5-methylpyridin-2-yl)methyl)amino)thianthren-1-yl)-4-morpholino pyridin-2(1H)-one] | –
3 | 6.30 to 7.00 | Cc1nccc(C(C)Nc2ccc3c(c2)Sc2cccc(-c4cc(N5CCOCC5)cc(=O)[nH]4)c2S3)n1 (stereo not shown) [Example 1-12-80, 6-(7-((1-(2-Methylpyrimidin-4-yl)ethyl)amino)thianthren-1-yl)-4-morpholino pyridin-2(1H)-one] | –
4 | 6.30 to 7.00 | O=c1cc(N2CCOCC2)cc(-c2cccc3c2Oc2ccc(NCc4cncc(-c5cn[nH]c5)c4)cc2C3)[nH]1 [Example 2-8-2, 6-(7-(((5-(1H-pyrazol-4-yl)pyridin-3-yl)methyl)amino)-9H-xanthen-4-yl)-4-morpholinopyridin-2(1H)-one] | –
5 | 6.30 to 7.00 | COc1ccc(CNc2ccc3c(c2)Cc2cccc(-c4cc(N5CCOCC5)cc(=O)[nH]4)c2O3)cc1 [Example 2-40, 6-(7-((4-methoxybenzyl)amino)-9H-xanthen-4-yl)-4-morpholinopyridin-2(1H)-one] | –
6 | – | O=c1cc(N2CCOCC2)cc(-c2cccc3c2Sc2ccc(N4CC4CF)cc2S3)[nH]1 (stereo not shown) [Example 1-40, 6-(7-(2-(fluoromethyl)aziridin-1-yl)thianthren-1-yl)-4-morpholinopyridin-2(1H)-one] | 6.30 to 7.00
7 | 5.70 to 6.30 | CNCCC(Nc1ccc2c(c1)Sc1cccc(-c3cc(N4CCOCC4)cc(=O)[nH]3)c1S2)c1cnc(C)cn1 (stereo not shown) [Example 1-20-11, 6-(7-((3-(Methylamino)-1-(5-methylpyrazin-2-yl)propyl)amino)thianthren-1-yl)-4-morpholino pyridin-2 (1H)-one] | –
8 | 6.30 to 7.00 | CN(C)c1ncc(CNc2ccc3c(c2)Sc2cccc(-c4cc(N5CCOCC5)cc(=O)[nH]4)c2O3)cn1 [Example 4-4-5, 6-(8-(((2-(Dimethylamino)pyrimidin-5-yl)methyl)amino)phenoxathiin-4-yl)-4-morpholino pyridin-2 (1H)-one] | –
9 | 6.30 to 7.00 | Cc1ccc(C(CC2CC2)Nc2ccc3c(c2)Sc2cccc(-c4cc(N5CCOCC5)cc(=O)[nH]4)c2S3)nc1 (stereo not shown) [Example 1-12-128, 6-(7-((2-Cyclopropyl-1-(5-methylpyridin-2-yl)ethyl)amino)thianthren-1-yl)-4-morpholino pyridin-2(1H)-one] | –
10 | 5.70 to 6.30 | O=c1cc(N2CCOCC2)cc(-c2cccc3c2Oc2ccc(Nc4cccnc4)cc2C3)[nH]1 [Example 2-61, 4-Morpholino-6-(7-(pyridin-3-ylamino)-9H-xanthen-4-yl)pyridin-2(1H)-one] | –
11 | 5.70 to 6.30 | Cc1cnc(C(C)Nc2ccc3c(c2)Cc2cccc(-c4cc(N5CCOCC5)cc(=O)[nH]4)c2O3)cn1 (single isomer, unassigned) [Example 2-14-90-1, 6-(7-((1-(5-methylpyrazin-2-yl)ethyl)amino)-9H-xanthen-4-yl)-4-morpholinopyridin-2(1H)-one] | –
12 | 6.30 to 7.00 | O=c1cc(N2CCOCC2)cc(-c2cccc3c2Oc2ccc(NC4CCCN(CCc5ccccc5)CC4)cc2C3)[nH]1 (stereo not shown) [Example 2-19-5, 4-Morpholino-6-(7-((1-phenethylazepan-4-yl)amino)-9H-xanthen-4-yl)pyridin-2(1H)-one] | –
13 | 6.30 to 7.00 | N#CCN1CCC(Nc2ccc3c(c2)Cc2cccc(-c4cc(N5CCOCC5)cc(=O)[nH]4)c2O3)CC1 [Example 2-30-1, 2-(4-((5-(4-morpholino-6-oxo-1,6-dihydropyridin-2-yl)-9H-xanthen-2-yl)amino)piperidin-1-yl)acetonitrile] | –
14 | 6.30 to 7.00 | CC(CCN1CCN(C)CC1)Nc1ccc2c(c1)Sc1cccc(-c3cc(N4CCOCC4)cc(=O)[nH]3)c1S2 (stereo not shown) [Example 1-42-2, 6-(7-((4-(4-Methylpiperazin-1-yl)butan-2-yl)amino)thianthren-1-yl)-4-morpholino pyridin-2(1H)-one] | –
15 | 6.30 to 7.00 | O=c1cc(N2CCOCC2)cc(-c2cccc3c2Oc2ccc(NC4CCCN(CCc5ccccc5)CC4)cc2S3)[nH]1 (stereo not shown) [Example 4-6-2, 4-Morpholino-6-(8-((1-phenethylazepan-4-yl)amino)phenoxathiin-4-yl)pyridin-2(1H)-one] | –
16 | > 7.00 | Cc1ccc(C(Nc2ccc3c(c2)Sc2cccc(-c4cc(N5CCOCC5)cc(=O)[nH]4)c2S3)[C@@H]2CN(C)CCO2)nc1 (single isomer, unassigned) [Example 1-56-10] | –
17 | > 7.00 | Cc1ccc(C(Nc2ccc3c(c2)Sc2cccc(-c4cc(N5CCOCC5)cc(=O)[nH]4)c2S3)[C@H]2CN(C)CCO2)nc1 (single isomer, unassigned) [Example 1-56-13] | –
18 | 6.30 to 7.00 | COc1cncc(C(CO)Nc2ccc3c(c2)Sc2cccc(-c4cc(N5CCOCC5)cc(=O)[nH]4)c2S3)n1 (stereo not shown) [Example 1-12-79, 6-(7-((2-Hydroxy-1-(6-methoxypyrazin-2-yl)ethyl)amino)thianthren-1-yl)-4-morpholino pyridin-2(1H)-one] | –
19 | 6.30 to 7.00 | CC(CN1CCCC(O)C1)Nc1ccc2c(c1)Sc1cccc(-c3cc(N4CCOCC4)cc(=O)[nH]3)c1S2 (stereo not shown) [Example 1-13-6, 6-(7-((1-(3-Hydroxypiperidin-1-yl)propan-2-yl)amino)thianthren-1-yl)-4-morpholino pyridin-2(1H)-one] | –
20 | 6.30 to 7.00 | O=c1cc(N2CCOCC2)cc(-c2cccc3c2Sc2ccc(NC4CCC(N5CCOCC5)CC4)cc2S3)[nH]1 (stereo not shown) [Example 1-36-1, 4-Morpholino-6-(7-((4-morpholinocyclohexyl)amino)thianthren-1-yl)pyridin-2(1H)-one] | –
21 | 6.30 to 7.00 | O=c1cc(N2CCOCC2)cc(-c2cccc3c2Sc2ccc(N[C@H](COCc4ccccc4)CN4CCOCC4)cc2S3)[nH]1 [Example 1-59-2, (S)-6-(7-((1-(benzyloxy)-3-morpholinopropan-2-yl)amino)thianthren-1-yl)-4-morpholinopyridin-2(1H)-one] | –
22 | 6.30 to 7.00 | COc1cc(CNc2ccc3c(c2)Sc2cccc(-c4cc(N5CCOCC5)cc(=O)[nH]4)c2O3)ccn1 [Example 4-8-4, 6-(8-(((2-Methoxypyridin-4-yl)methyl)amino)phenoxathiin-4-yl)-4-morpholino pyridin-2(1H)-one] | –
23 | 6.30 to 7.00 | COc1nccc(C(C)Nc2ccc3c(c2)Cc2cccc(-c4cc(N5CCOCC5)cc(=O)[nH]4)c2O3)n1 (stereo not shown) [Example 2-14-63, 6-(7-((1-(2-Methoxypyrimidin-4-yl)ethyl)amino)-9H-xanthen-4-yl)-4-morpholino pyridin-2(1H)-one] | –

Row | SMILES | pIC50 [1] | pIC50 (ATM inhibitory activity)
24 | CC1CC(Nc2ccc3c(c2)Cc2cccc(-c4cc(N5CCOCC5)cc(=O)[nH]4)c2O3)CCN1C(=O)OC(C)(C)C (stereo not shown) [Example 2-14-84, tert-Butyl 2-methyl-4-((5-(4-morpholino-6-oxo-1,6-dihydropyridin-2-yl)-9H-xanthen-2-yl)amino) piperidine-1-carboxylate] | 5.70 to 6.30 | –
25 | O=C(CN1C2CCC1COC2)Nc1ccc2c(c1)Sc1cccc(-c3cc(N4CCOCC4)cc(=O)[nH]3)c1S2 [Example 1-7-2, 2-(3-Oxa-8-azabicyclo[3.2.1]octan-8-yl)-N-(6-(4-morpholino-6-oxo-1,6-dihydropyridin-2-yl)thianthren-2-yl)acetamide] | 6.30 to 7.00 | –
